According to a compilation of properties of binary mixtures (doi:10.3866/pku.whxb202001015):

Experiment: xn = mol fraction of the nth substance listed
Details: 293.15 K, 101.3 kPa

CC(=O)[O-].Cn1cc[nH+]c1 + CCO
Details | electrical conductivity [S/m]
x2 = 0.0616 | 0.449
x2 = 0.0975 | 0.527
x2 = 0.2701 | 0.821
x2 = 0.3985 | 1.33
x2 = 0.4978 | 1.7
x2 = 0.6604 | 2.27
x2 = 0.7397 | 2.34
x2 = 0.7865 | 1.92
x2 = 0.8291 | 1.52
x2 = 0.8486 | 1.31
x2 = 0.9522 | 0.312
x2 = 0.9648 | 0.199
x2 = 0.9725 | 0.139

CC(=O)[O-].Cn1cc[nH+]c1 + O
Details | electrical conductivity [S/m]
x2 = 0 | 0.326
x2 = 0.2845 | 2.06
x2 = 0.4277 | 3.44
x2 = 0.5098 | 4.31
x2 = 0.6959 | 6.95
x2 = 0.8691 | 9.7
x2 = 0.8823 | 8.7
x2 = 0.9207 | 5.18
x2 = 0.9425 | 2.9
x2 = 0.9559 | 1.7
x2 = 0.9677 | 0.849
